system: Oryza sp.; test: Compound was evaluated for protecting rice plants from infestation by blast upon foliar application.; assay type: functional

SMILES | ED90
C[C@@H](NC(=O)[C@]1(C(F)(F)F)C[C@](C)(Cl)C1)c1ccc(Br)cc1 (stereo in doubt; 3b) | 40 p.p.m.

target: T1, Scytalone dehydratase (Magnaporthe oryzae (strain 70-15 / FGSC 8958) (Rice blast fungus)(Pyricularia oryzae), UniProt P56221); test: Inhibitory activity against Scytalone dehydratase; design: species or system Pyricularia grisea
T1 sequence (P56221 whole entry): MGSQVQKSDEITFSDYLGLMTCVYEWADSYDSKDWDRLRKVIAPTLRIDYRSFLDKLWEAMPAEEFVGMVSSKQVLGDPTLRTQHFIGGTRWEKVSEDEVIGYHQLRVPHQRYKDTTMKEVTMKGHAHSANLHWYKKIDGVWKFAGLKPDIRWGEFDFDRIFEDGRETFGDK

SMILES | Ki
C[C@@H](NC(=O)C1(C(F)(F)F)CC(C)(Cl)C1)c1ccc(Br)cc1 (some centres not stated) | 0.049 nM
CC(CCc1ccccc1)NC(=O)C1(C(F)(F)F)CC(C)(Cl)C1 (configuration not stated) | 8.6 nM
CC(NC(=O)C1(C(F)(F)F)CC(C)(Cl)C1)c1ccc(Oc2ccccc2)cc1 (configuration not stated) | 5.6 nM
C[C@H](COc1ccccc1F)NC(=O)C1(C(F)(F)F)CC(C)(Cl)C1 (some centres not stated) | 0.78 nM
C[C@@H](NC(=O)[C@]1(C(F)(F)F)C[C@](C)(Cl)C1)c1ccc(Br)cc1 (stereo in doubt; 3b) | 0.026 nM
C[C@@H](NC(=O)[C@]1(C(F)(F)F)C[C@](C)(Cl)C1)c1ccc(Br)cc1 (stereo in doubt; 3a) | 2.3 nM

— ChEMBL document CHEMBL1132522, “A new potent inhibitor of fungal melanin biosynthesis identified through combinatorial chemistry” (Bioorg Med Chem Lett, 1999)
